Laboratory results: patent publication US20220143024A1, “METHODS OF USING IMIPRIDONES” (Board of Regents, The University of Texas System, priority 2019, published 2022)
Where two headings read alike, the source gives them in different places.

Tests used:
[1] = tested on: ONC201-resistant (ONC-R) Z138 cells carrying D190A mutant ClpP; assay: Sensitivity of ONC201-resistant Z138 cells; details: Annexin V assay; 72 hours
Experimental: (§3) After a 72-h period of incubation at 37° C., 10 μL of Alamar Blue was added to the culture medium and the mixture was incubated for an additional 2 h at 37° C. Cytotoxicity was measured using spectrophotometry of fluorescence at excitation 560 nm & emission 590 nm (SpectraMax M3, Molecular Devices, San Jose, Calif.). […] Annexin V and PI were stained after 72 h incubation. Annexin V- and PI-negative cells were counted as live cells.

[2] = tested on: CLPP+/+ T-REx HEK293 cells; assay: Alamar blue viability, CLPP+/+ T-REx HEK293; details: CLPP+/+ (wild type) T-REx HEK293, 72 h
Experimental: as §3

[3] = tested on: CLPP−/− T-REx HEK293 cells; assay: Alamar blue viability, CLPP−/− T-REx HEK293; details: 72 h
Experimental: as §3

[4] = tested on: patient-derived xenograft AML cells (leukemia-initiating cells); assay: Engraftment of ex vivo treated patient-derived xenograft AML cells; assay type: in vivo; details: cells treated ex vivo with 250 nM for 36 hours, injected into NSG mice; untreated 36 days; p<0.0001
Experimental: (§1) Mice. For all the animal studies in the present study, the study protocols were approved by the Institutional Animal Care and Use Committee (IACUC) at the Princess Margaret Cancer Centre and MD Anderson Cancer Center. Two million Z138 cells transfected with the wild-type or D190A mutant CLPP-over-expressing vector and labeled with luciferase were injected to individual NSG mice (n=7 per treatment group, all female). After confirming engraftment measured by in vivo bioluminescence imaging on d 9 post-transplantation, ONC212 (50 mg/kg/d) or vehicle (water) is administered by oral gavage every other d until the mice got moribund. Tumor burden measured by luminescence was followed weekly until day 31. Independently, two million Z138 cells transfected with tetracycline-inducible Y118A mutant ClpP were labeled with luciferase and injected to individual NSG mice (n=10 per treatment group, all male). After confirming engraftment measured by in vivo bioluminescence imaging on day 5 post-transplantation, the mice were treated with or without tetracycline (2 mg/mL) in drinking water until moribund. One million OCI-AML2 cells were injected to individual SCID mice (n=10 per treatment group, all male). […]. Engraftment experiments using patient-derived xenograft AML cells were performed as previously reported (Ishizawa et al., 2016). […] The mice in each group were monitored for survival.

[5] = tested on: primary AML patient samples; assay: Annexin V assay in primary AML samples; details: 72 hours; incl. high-risk cytogenetics and molecular mutations
Experimental: Bulk AML cells from AML patients and peripheral blood stem cells from healthy G-CSF-treated stem cell donors were isolated by Ficoll density centrifugation and apheresis, respectively. Isolated cells were maintained in IMDM supplemented with 10% FBS, or Myelocult H5100 (Stemcell Technologies, Vancouver, BC), supplemented with 100 ng/mL SCF, 10 ng/mL FLT3-L, 20 ng/mL IL-7, 10 ng/mL IL-3, 20 ng/mL IL-6, 20 ng/mL G-CSF, 20 ng/mL GM-CSF. Cells were supplemented with 100 μg/ml penicillin, and 100 U/ml streptomycin, at 37° C. and 5% CO2 in humidified atmosphere.

[6] = tested on: Z138 cells with D190A ClpP overexpression; assay: Z138 xenograft, D190A ClpP overexpression; assay type: in vivo, mice
Experimental: as §1

[7] = biological target: T1, human ClpP (recombinant WT ClpP) (Homo sapiens, UniProt Q16740); assay: ClpP enzymatic assays with fluorogenic substrates (cell-free); assay type: biochemical; details: for EC50: without ClpX
T1 construct: SUMO fusion (pETSUMO2); made in house; host or cells: E. coli SG1146
T1 sequence (Q16740 57-277): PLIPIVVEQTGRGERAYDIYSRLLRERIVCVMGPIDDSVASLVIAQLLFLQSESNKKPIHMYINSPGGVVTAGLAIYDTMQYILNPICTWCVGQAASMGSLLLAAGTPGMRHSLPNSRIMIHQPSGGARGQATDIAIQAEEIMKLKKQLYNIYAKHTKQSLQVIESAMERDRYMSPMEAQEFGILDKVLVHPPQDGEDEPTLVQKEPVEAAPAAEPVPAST
Experimental: (§2) Hill coefficient was determined using Origin7, Pharmacology—Dose-response curve with log (compound concentration) as the independent variable.

[8] = biological target: endogenous ClpP in OCI-AML2 cells (Homo sapiens, UniProt Q16740); details: 30 min, at concentrations associated with activation in enzymatic assays
endogenous ClpP in OCI-AML2 cells, sequence (Q16740 57-277): as above

[9] = tested on: Z138 cells with WT ClpP overexpression; assay: Z138 xenograft, WT ClpP overexpression; assay type: in vivo, mice; details: WT ClpP group
Experimental: as §1

[10] = tested on: ClpP interactors (SDHA, SDHB, NDUFA12) in OCI-AML3 cells; assay: Immunoblot of respiratory chain complex subunits, OCI-AML3; assay type: cell-based; details: 24 hours, dose dependent
Experimental: Cells were lysed at a density of 1×10^6/50 μL (for AML cells) or 1×10^6/100 μL (for HCT116 cells) in protein lysis buffer (0.25 M Tris-HCl, 2% sodium dodecylsulfate, 4% β-mercaptoethanol, 10% glycerol, 0.02% bromophenol blue). Protein lysates for Oxphos cocktail antibodies were incubated for 30 min at room temperature, otherwise, at 95° C. for 5 min for denaturing (antibodies used are listed below). Immunoblot analysis was performed as reported previously (Ishizawa et al., 2016). Briefly, an equal amount of protein lysate was loaded onto a 10-12% SDS-PAGE gel (Bio-Rad), and quantitated using the Odyssey imaging system (LI-COR Biotechnology, Lincoln, Nebr.). Antibodies used: total OXPHOS rodent WB antibody cocktail, anti-SDHA, anti-SDHB, anti-NDUFA12, anti-ClpP, anti-ATF4, anti-eIF2α, anti-phospho-eIF2α (S51), anti-ClpP, anti-CQCRC2, anti-CS, anti-NDUFB8, anti-β-actin, and anti-GAPDH.

ClpP = biological target: T2, ClpP (Homo sapiens, UniProt Q16740); assay: Gel-based α-casein degradation by ClpP; assay type: biochemical; details: without ClpX; 3 h; SDS-PAGE
T2 construct: SUMO fusion (pETSUMO2); made in house; host or cells: E. coli SG1146
T2 sequence (Q16740 57-277): as above

[11] = tested on: OCI-AML2, OCI-AML3, TEX, Z138, HCT-116, HeLa, OC316 and SUM159 cells; assay: Growth and viability of leukemia, lymphoma and solid tumor cell lines; details: tested cell lines; 72-hour exposure
Experimental: as §3

recombinant D190A ClpP = biological target: T3, recombinant D190A ClpP (Homo sapiens, UniProt Q16740, D190A); assay: ClpP enzymatic assays, D190A ClpP; assay type: biochemical; details: peptide (AC-WLA-AMC) or protein (FITC-casein) substrates
T3 construct: SUMO fusion (pETSUMO2); made in house; host or cells: E. coli SG1146
T3 sequence (Q16740 57-277 D190A): as the sequence (Q16740 57-277) above, with D134A counted along it
Experimental: as §2

[12] = tested on: Z138 cells with tetracycline-inducible mutant ClpP (Y118A); assay: Z138 xenograft with tetracycline-inducible Y118A mutant ClpP; assay type: in vivo; details: tetracycline 2 mg/mL in drinking water induces Y118A ClpP; untreated 40 days; p<0.0001; NSG mice
Experimental: as §1

OCI-AML2 cells = assay: Alamar blue viability assay, OCI-AML2; assay type: cell-based; details: 72-hour exposure, read-out: IC50, growth and viability
Experimental: […]. After a 72-h period of incubation at 37° C., 10 μL of Alamar Blue was added to the culture medium and the mixture was incubated for an additional 2 h at 37° C. Cytotoxicity was measured using spectrophotometry of fluorescence at excitation 560 nm & emission 590 nm (SpectraMax M3, Molecular Devices, San Jose, Calif.). For apoptosis analysis, annexin V and PI binding assays were performed to assess apoptosis as described previously (Ishizawa et al., 2016). […]. Annexin V and PI were stained after 72 h incubation. Annexin V- and PI-negative cells were counted as live cells.

[13] = substrate FITC-casein, read-out: EC50, ClpP cleavage of FITC-casein

## COc1cccc2c1C(=O)c1c(O)c3c(c(O)c1C2=O)C[C@@](O)(C(=O)CO)C[C@@H]3O[C@H]1C[C@H](N)[C@H](O)[C@H](C)O1 [Adriamycin]
[1]
  sensitivity of ONC-R Z138 cells: retained similar sensitivity

## O=C1C2=C(CCN(Cc3ccccc3)C2)N2CCN=C2N1Cc1ccc(C(F)(F)F)cc1 [ONC212]
[2]
  growth and viability: reduced the growth and viability
[3]
  growth and viability: resistant
[4]
  median survival: 82 days
[5]
  apoptosis in primary AML patient samples: induced apoptosis
[6]; D190A ClpP group, 50 mg/kg every other day, oral gavage, NSG mice
  tumor burden (luciferase, IVIS imaging): no discernable anti-tumor activity
[6]; D190A mutant group, vehicle 53 days, p=0.40
  median survival: 54 days
[7]; FITC-casein data, positive cooperativity
  Hill coefficient: 4.98±0.47
[7]; pre-incubation of ClpP with compound (0-60 min) did not increase activation
  mode of activation: reversible (non-covalent)
[7]; read-out: EC50, ClpP cleavage of FAPHMALVPC (Clptide), substrate FAPHMALVPC (Clptide), read-out: EC50, ClpP cleavage of […] (Clptide)
  EC50: 3.37 µM
[7]; substrate AC-WLA-AMC, read-out: EC50, ClpP cleavage of AC-WLA-AMC
  EC50: 0.18 µM
[7]; substrate Ac-Phe-hArg-Leu-ACC, read-out: EC50, ClpP cleavage of Ac-Phe-hArg-Leu-ACC
  EC50: 0.37 µM
[7]; [13]
  EC50: 0.46 µM
[8]
  binding to endogenous ClpP in cells: bound endogenous ClpP
[1]
  sensitivity of ONC-R Z138 cells: cross-resistant
[9]; 50 mg/kg every other day, oral gavage, NSG mice
  tumor burden (luciferase, IVIS imaging): significantly reduced
[9]; vehicle 49 days, p=0.008
  median survival: 55 days
[10]
  level of identified ClpP interactors: reduced the level
ClpP
  degradation of α-casein by ClpP: activated ClpP and induced cleavage of α-casein
[11]
  IC50 values, growth and viability: nanomolar range
Recombinant D190A ClpP
  activation of proteolytic activity of D190A ClpP: could not activate

## CC[C@]1(O)C[C@H]2CN(CCc3c([nH]c4ccccc34)[C@@](C(=O)OC)(c3cc4c(cc3OC)N(C=O)[C@H]3[C@@](O)(C(=O)OC)[C@H](OC(C)=O)[C@]5(CC)C=CCN6CC[C@]43[C@@H]65)C2)C1 [Vincristine]
[1]
  sensitivity of ONC-R Z138 cells: retained similar sensitivity

## CN(C)[C@@H]1C(O)=C(C(N)=O)C(=O)[C@@]2(O)C(O)=C3C(=O)c4c(O)cccc4[C@@](C)(O)[C@H]3C[C@@H]12 [tetracycline]
[12]
  median survival: 48 days

## Acyldepsipeptide 1 [ADEP1]
[7]; ADEP1 versus ONC201 and ONC212
  potency as ClpP activator (comparison): less potent
[7]; after activating ClpP
  cleavage of non-ClpP substrate MCA-Pro-Leu-Gly-Pro-D-Lys (DNP)-OH: not cleaved
[7]; [13]
  EC50: 21.3 µM
OCI-AML2 cells
  IC50: 50 µM
